Results taken from patent publication US8110655B2, “Method to promote hair growth and/or delay or treat hair loss by administering a TGF-β antagonist or inhibitor” (Auxagen, Inc., priority 2006, dated 2012).
“Also recorded” adds a separate entry of the source.

Experiments:
[1] = tested on: full-thickness burn wounds on pig skin; experiment: Hair growth in full-thickness pig skin burn wound model; assay type: in vivo, pig (Yorkshire strain); conditions: for hair growth, % of the original pre-burn area: topical, full-thickness burn, postburn day 30
Description: TGF-β peptantagonists with amino acid sequences corresponding to residues 41-65 of TGF-β1 (SEQ ID NO: 8) and TGF-β2 (SEQ ID NO: 9), and TGF-β peptantagonist 6-β1^25 (SEQ ID NO: 7), which have additional 6 glutamate residues at the N-termini were synthesized and purified as described previously. Sterile IntraSite gel was obtained from Smith and Nephew Medical, Ltd. (UK) and mixed with TGF-β peptantagonists in phosphate-buffered saline at a ratio of 3:1 (v/v).
Female pigs (Yorkshire strain, house inbred and specific pathogen-free) weighing 20-25 kg were used in the experiments. The pigs were housed in individual rooms. They were fed standard laboratory chow and water ad libitum. All study protocols were reviewed and approved by the respective institutional animal care committees.
Four pigs weighing 20-25 kg were anesthetized by intramuscular injection of ketamine (5 mg/kg), strenil (cazaporonum) (20 mg/kg), and atropine ([…]). Six uniform burn wounds (110° C., 30 s) were then made symmetrically on the back of each pig using a modified soldering iron with a flat contact area of 20 cm^2. […] After wounding, IntraSite gels containing 6-E-β1^25 and buffer vehicle (as control) were applied to the pig burn wounds. All wounds were dressed with paraffin gauze. TGF-β peptantagonist gel or control gel was applied to the wounds every 2 days for the first 10 days and twice a week for the next 30 days. All wounds were cleaned and measured before each application of the IntraSite gel.
Hair growth was assessed by measuring hair number and hair length in the burn lesion and around the lesion area. Hair growth was monitored every 2 days for the first 10 days and twice a week for 30 more days. Hair growth expressed as a percent of the original wound size was calculated.
The pig model is commonly used in skin injury (e.g., burn) experiments because porcine skin is anatomically very similar to human skin. It was used to determine the ability of 6-E-β1^25 peptantagonist to rescue or restore hair follicles and to promote hair growth in a standardized burn injury. Four pigs weighing 20-25 kg were anesthetized by intramuscular injection of ketamine (5 mg/kg). A soldering iron with a flat contact area of ˜20 cm^2 was used to generate full-thickness burn wounds (110° C., 30 s) at standard sites on the skin of the back. Six thermal burns (three on each side) were created on each pig. After wounding, two lesions were treated with a thin layer of IntraSite gel containing 6-E-β1^25 (SEQ ID NO: 7) (0.15 and 0.6 mM); two received gel alone and two received no topical applications. All wounds were then bandaged and protected from potential contact irritation with a fixed frame. 6-E-β1^25 (SEQ ID NO: 7) and vehicle gels were applied every 2 days for the first 10 days and twice a week for the next 30 days, at which time hair growth was measured and photographed. Each animal served as its own control. […] At 0.15 and 0.6 mM, 6-E-β1^25 (SEQ ID NO: 7) promoted hair growth of 5-10 and 30-40% of the original pre-burn area, respectively.

[2] = tested on: TGF-β; experiment: TGF-β antagonist activity of C44S/C48S variants (test not specified); conditions: C44S/C48S versions versus parent peptides
Description: In another embodiment of the invention variants of peptantagonists β3^25 (41-65) (SEQ ID NO: 4), β2^25 (41-65) (SEQ ID NO: 5), and β3^25 (41-65) (SEQ ID NO: 6), are provided in which cysteine-44 and cysteine-48 were replaced by serine residues.

[3] = tested on: TGF-β receptors in mink lung epithelial cells; conditions: earlier finding of the inventors (U.S. Pat. No. 6,500,920); cited from earlier work
[4] = tested on: mink lung epithelial cells; conditions: mink lung epithelial cells and other cell types; U.S. Pat. No. 6,500,920; cited from earlier work
[5] = tested on: PAI-1; conditions: mink lung epithelial cells and other cell types; U.S. Pat. No. 6,500,920; cited from earlier work
[6] = Stability in solution / in IntraSite gel during storage; conditions: C44S/C48S versions versus parent peptides
Description: One milliliter of sterile 3 mM each of TGF-β peptantagonist 6-E-β1^25 (SEQ ID NO: 7), in phosphate-buffered saline (PBS) or 1 ml of sterile PBS (vehicle) was vigorously mixed with 3 ml of IntraSite gel using two 10 ml syringes connected with a three-way connector.

Row | Substance | TGF-β antagonist activity compared with the cysteine-containing peptantagonists [2] | inhibition of binding of radiolabeled TGF-β1, TGF-β2 and TGF-β3 to TGF-β receptors [3] | block of TGF-β-induced growth inhibition [4] | block of TGF-β-induced expression of PAI-1 [5] | also measured
1 | 6-E-β1^25: β1^25 C44S/C48S derivitized with 6 glutamate at the N-terminus (EEEEEEANFSLGPSPYIWSLDTQYSKVLALY; six N-terminal glutamates; listed as Homo Sapiens) | – | – | – | – | hair growth, % of the original pre-burn area ([1]; 0.15 mM in IntraSite gel): 5-10%; hair growth, % of the original pre-burn area ([1]; 0.6 mM in IntraSite gel): 30-40%; promotion of hair growth (effective concentrations, dose dependence) ([1]; 0.15 and 0.6 mM in IntraSite gel): effective in promoting hair growth; also recorded: promote hair growth in a dose-dependent manner; hair growth in the area surrounding the burn wound ([1]; 0.15 and 0.6 mM, topical gel): promoted hair growth in the area surrounding the burn wound; re-epithelialization and hair growth of treated wounds ([1]; postburn day 30, topical gel): exhibited re-epithelialization and hair growth
2 | NH2-ANFSLGPSPYIWSLDTQYSKVLALY-COOH (H-ANFSLGPSPYIWSLDTQYSKVLALY-OH; listed as Homo Sapiens) [β1^25 C44S/C48S, variant of β1^25 (41-65) in which cysteine-44 and cysteine-48 were replaced by serine residues] | the same TGF-β antagonist activity | – | – | – | –
3 | β1^25 (41-65): chemically synthesized peptide corresponding to the 41st to 65th amino acid residues of TGF-β1 | – | inhibit | block | block | –
4 | β2^25 (41-65): chemically synthesized peptide corresponding to the 41st to 65th amino acid residues of TGF-β2 (ANFCAGACPYLWSSDTQHSRVLSLY; listed as Homo Sapiens) | – | inhibit | block | block | –
5 | β2^25 C44S/C48S: variant of β2^25 (41-65) in which cysteine-44 and cysteine-48 were replaced by serine residues (ANFSAGASPYLWSSDTQHSRVLSLY; listed as Homo Sapiens) | the same TGF-β antagonist activity | – | – | – | stability in solution during storage [6]: better stability in solution during storage
6 | β3^25 (41-65): chemically synthesized peptide corresponding to the 41st to 65th amino acid residues of TGF-β3 (ANFCSGPCPYLRSADTTHSTVLGLY; listed as Homo Sapiens) | – | inhibit | block | block | –
7 | β3^25 C44S/C48S: variant of β3^25 (41-65) in which cysteine-44 and cysteine-48 were replaced by serine residues (ANFSSGPSPYLRSADTTHSTVLGLY; listed as Homo Sapiens) | the same TGF-β antagonist activity | – | – | – | stability in solution during storage [6]: better stability in solution during storage
